In patent publication US8524635B2, “Antifungal composition” (DSM IP Assets B.V., priority 2006, dated 2013):

Tests used:
[1] = system: Fusarium oxysporum f. sp. tulipae CBS116591 and Fusarium oxysporum f. sp. tulipae Tu467; assay: Tulip bulbs (Prominence) inoculated with mould spores, treated, planted in pots; infection scored at full bloom; assay type: in vivo; details: for % of bulbs infected: average of 60 bulbs, control 100
Procedure: (§1) In this example tulip bulbs of the variety Prominence were treated with a 1:1 mixture of spores of the pathogenic moulds Fusarium oxysporum f. sp. tulipae CBS116591 and Fusarium oxysporum f. sp. tulipae Tu467 by submersing the bulbs for 30 minutes in a suspension containing 50.000-100.000 spores per ml. The mould spores were obtained using well-known methods. It should be noticed that in this challenge test the effect of the compositions was tested under very severe circumstances, because a very high number of mould spores was used. In real practise, the disease pressure will be less severe.
(§2) After the inoculation with mould spores the bulbs were dried following well-known methods. 40-60 minutes after drying the bulbs were treated with the different compositions described in Table 1. The compositions were prepared according to the instructions described on the label. All compositions contained 0.1% (v/v) of the sticking agent Prolong® (Holland Fyto, The Netherlands) and the surfactant Zipper® (Asepta BV, The Netherlands) in a concentration of 1 ml/l. Subsequently, the bulbs were planted in soil in pots (10 bulbs per pot) and incubated under well known standard conditions for growing tulips.
The bulbs were examined for mould infection when the flowers were at full bloom. For each incubation the average observation of 60 bulbs is given. Statistical analysis was performed after an ASIN transformation. The LSD at P=5% was 6.50.

[2] = system: Fusarium oxysporum f. sp. tulipae CBS116591 and Fusarium oxysporum f. sp. tulipae Tu467; assay: Tulip bulb treatment as in Example 1, infected bulbs scored and grouped by ANOVA; assay type: in vivo; details: control 90.0, LSD at P=5% 6.50
Procedure: as §1, §2
This example describes the results of an experiment performed as described in Example 1. Just as in the experiment performed in Example 1, the pH of all solutions was adjusted to 5.7 with KOH or K2CO3 which results in a mixture of two phosphites, KH2PO3 and K2HPO3.
The results obtained with a composition comprising 25% of a standard cocktail which is generally applied in practice are included. This standard cocktail contains the commercial products 0.5% (v/v) Captan (546 gram active ingredient per liter), 0.3% (v/v) Prochloraz (450 g/l) and 1% (v/v) Topsin M (500 g/l). The number of infected bulbs was scored and grouped using the well-known statistical method ANOVA (LSD at P=5% was 6.50).

[3] = system: Fusarium oxysporum f. sp. tulipae CBS 116593; assay: Wounded tulip bulbs infected after harvest, treated and stored 15 days at 24° C., visual mould growth; assay type: in vivo; details: 15 days storage; for Amount of non-infected bulbs (in %): control 40; for Amount of bulbs with visible moulds (in %): control 60
Text: In this experiment tulip bulbs of the variety Prominence were infected just after harvesting with a spore suspension of Fusarium oxysporum f. sp. tulipae CBS 116593 and treated with the antifungal compositions presented in Table 3. This time, the bulbs were not planted but stored. In this experiment the efficacy of the antifungal composition during the storage of the bulbs was studied.
After harvesting, the outer dry skin of the bulbs was removed and the bulbs were disinfected by applying a treatment with 4% (v/v) Glorix® for 5 minutes. The bulbs were dried and a lesion of a few millimeters was made in the surface of the bulb using a knife. The wound was infected with 15 μl of a spore suspension of Fusarium oxysporum f. sp. tulipae; this way approximately 10.000 mould spores infected the wound after which the bulbs were treated with 30 μl of the compositions described in Table 3. Twenty bulbs were treated per composition. In one experiment the treatment with the antifungal composition was applied 12 hours after infection. The bulbs were incubated for 15 days at a temperature of 24° C. after which the bulbs were examined visually on mould growth.

Helminthosporium solani = assay: Seed-potatoes naturally contaminated with silver scurf, sprayed and stored; mould growth and sporulation; assay type: in vivo
Procedure: Freshly harvested seed-potatoes naturally contaminated with silver scurf were selected for this experiment. The seed-potatoes were treated with the compositions described in Table 4. All compositions contained 0.1% (v/v) of the sticking agent Prolong® (Holland Fyto, The Netherlands) and the surfactant Zipper® (Asepta BV, The Netherlands) in a concentration of 1 ml/l. Said compositions were sprayed on the seed-potatoes using well-known methods after which the seed-potatoes were stored under standard conditions. For each composition 9×25 seed-potatoes were used; of each composition one triple set of seed-potatoes (3×25) was judged visually on mould growth after 1 month of storage (t=1), after 3 months of storage (t=3) and after 6 months of storage (t=6). The mould growth is reported as increase of surface covered with moulds (in percentage). In addition the sporulation of the moulds on the seed-potatoes was examined and scored on a scale from 0 to 4 (0=no sporulation; 4=high sporulation).

[4] = cited from earlier work
most fungi = details: for most fungi; cited from earlier work
Fusarium oxysporum = details: bulbs dipped two hours at 43.5° C.; Dekker and Langerak (1979); cited from earlier work
Fusarium mould = details: Example 11 of WO 2004/067699; cited from earlier work

With `C[C@@H]1C/C=C/C=C/C=C/C=C/[C@H](O[C@@H]2O[C@H](C)[C@@H](O)[C@H](N)[C@@H]2O)C[C@@H]2O[C@](O)(C[C@@H](O)C[C@H]3O[C@@H]3/C=C/C(=O)O1)C[C@H](O)[C@H]2C(=O)O` [natamycin] the “% of bulbs infected” value ([1]; natamycin 0.2 g/l) was 88%, the “% of bulbs infected” value ([1]; natamycin 0.5 g/l) was 90% and the “Score (mould infection of tulip bulbs)” value ([2]; 200 ppm natamycin) was 76.0. The “Score (mould infection of tulip bulbs)” value ([2]; 500 ppm natamycin) was 75.0, the “Amount of non-infected bulbs (in %)” value ([3]; 500 ppm natamycin) was 60% and the “Amount of bulbs with visible moulds (in %)” value ([3]; 500 ppm natamycin) was 40%. The “Increase in percentage of the surface of seed-potatoes covered with mould” value (shortened to “Increase in percentage”) (Helminthosporium solani; natamycin 2000 ppm, t = 1 (1 month of storage), water control 3.8) was 1.5%, the “Sporulation of silver scurf moulds on seed potatoes” value (from here on “Sporulation of silver scurf moulds”) (Helminthosporium solani; natamycin 2000 ppm, t = 1, scale 0 to 4, water control 2.7) was 0.8 and the “Increase in percentage” value (Helminthosporium solani; natamycin 2000 ppm, t = 3 (3 months of storage), water control 3.4) was 3.0%. For the same compound, the “Sporulation of silver scurf moulds” value (Helminthosporium solani; natamycin 2000 ppm, t = 3, scale 0 to 4, water control 1.8) was 1.1, the “Increase in percentage” value (Helminthosporium solani; natamycin 2000 ppm, t = 6 (6 months of storage), water control 7.8) was 3.8% and the “Sporulation of silver scurf moulds” value (Helminthosporium solani; natamycin 2000 ppm, t = 6, scale 0 to 4, water control 2.4) was 1.8. For the same compound, the “Increase in percentage” value (Helminthosporium solani; natamycin 5000 ppm, t = 1 (1 month of storage), water control 3.8) was 0.8%, the “Sporulation of silver scurf moulds” value (Helminthosporium solani; natamycin 5000 ppm, t = 1, scale 0 to 4, water control 2.7) was 0.6 and the “Increase in percentage” value (Helminthosporium solani; natamycin 5000 ppm, t = 3 (3 months of storage), water control 3.4) was 2.6%. The “Sporulation of silver scurf moulds” value (Helminthosporium solani; natamycin 5000 ppm, t = 3, scale 0 to 4, water control 1.8) was 1.2, the “Increase in percentage” value (Helminthosporium solani; natamycin 5000 ppm, t = 6 (6 months of storage), water control 7.8) was 3.5% and the “Sporulation of silver scurf moulds” value (Helminthosporium solani; natamycin 5000 ppm, t = 6, scale 0 to 4, water control 2.4) was 0.7. The solubility in water [4] was 30-50 ppm, the “MIC (Minimal Inhibitory Concentration)” value (most fungi) was “less than 10 ppm” and the “preventing the spread of Fusarium oxysporum in the water baths (in words)” value (Fusarium oxysporum) was “as effective as organic mercury or formalin”. The “yellow mould spots on leaves growing from treated tulip bulbs (in words)” value (Fusarium mould) was “some yellow spots”.

In the case of copper lignosulphonate, the “effect on mould infection of tulip bulbs (in words)” value ([1]; conclusion from Table 1) is reported as “did not lead to reduction of moulds” and the “% of bulbs infected” value ([1]; copper lignosulphonate 2 g/l) is reported as 97%.

In the case of potassium phosphite, the “% of bulbs infected” value ([1]; potassium phosphite 20 g/l) is reported as 87%, the “Score (mould infection of tulip bulbs)” value ([2]; 120 mM phosphite, pH 5.7) is reported as 72.9 and the “Amount of non-infected bulbs (in %)” value ([3]; 120 mM phosphite) is reported as 50%. For the same compound, the “Amount of bulbs with visible moulds (in %)” value ([3]; 120 mM phosphite) was 50%, the “Increase in percentage” value (Helminthosporium solani; phosphite 120 mM, t = 1 (1 month of storage), water control 3.8) was 2.5% and the “Sporulation of silver scurf moulds” value (Helminthosporium solani; phosphite 120 mM, t = 1, scale 0 to 4 (0=no sporulation; 4=high sporulation), water control 2.7) was 1.3. The “Increase in percentage” value (Helminthosporium solani; phosphite 120 mM, t = 3 (3 months of storage), water control 3.4) was 4.0%, the “Sporulation of silver scurf moulds” value (Helminthosporium solani; phosphite 120 mM, t = 3, scale 0 to 4, water control 1.8) was 1.0 and the “Increase in percentage” value (Helminthosporium solani; phosphite 120 mM, t = 6 (6 months of storage), water control 7.8) was 6.9%. The “Sporulation of silver scurf moulds” value (Helminthosporium solani; phosphite 120 mM, t = 6, scale 0 to 4, water control 2.4) was 1.3.
